Results as given in ChEMBL document CHEMBL6153072, “Metabolically Stable Adenylation Inhibitors of Biotin Protein Ligase as Antibacterial Agents” (J Med Chem, 2025).
In brackets after ≈: the same amount, converted by molar mass.

Columns and labels:
Type in all cases: functional
[1] = test system: Mycobacterium tuberculosis; assay: Antimicrobial activity against Mycobacterium tuberculosis H37Rv harboring ultra-under-expression of BPL by broth microdilution assay
[2] = test system: Mycobacterium tuberculosis; assay: Antimicrobial activity against Mycobacterium tuberculosis H37Rv harboring high over-expression of BPL by broth microdilution assay
[3] = test system: Mycobacterium tuberculosis; assay: Antimicrobial activity against Mycobacterium tuberculosis H37Rv harboring medium over-expression of BPL by broth microdilution assay
[4] = test system: Mycobacterium tuberculosis; assay: Antimicrobial activity against Mycobacterium tuberculosis H37Rv harboring medium under-expression of BPL by broth microdilution assay

## CC(CCC[C@@H]1SC[C@@H]2NC(=O)N[C@@H]21)C(=O)[N-]S(=O)(=O)NC[C@H]1O[C@@H](n2cnc3c(N)ncnc32)[C@H](O)[C@@H]1O.[Na+] (some centres undefined)
[1]
  MIC50: 0.79 µM
[2]
  MIC50: > 100 µM
[3]
  MIC50: > 100 µM
[4]
  MIC50: 3.7 µM

## Nc1ncnc2c1ncn2[C@@H]1O[C@H](CNS(=O)(=O)[N-]C(=O)NCCC[C@@H]2SC[C@@H]3NC(=O)N[C@@H]32)[C@@H](O)[C@H]1O.[Na+]
[1]
  MIC50: 0.28 µM
[2]
  MIC50: > 100 µM
[3]
  MIC50: > 100 µM
[4]
  MIC50: 0.89 µM

## Nc1ncnc2c1ncn2[C@@H]1O[C@H](CNS(=O)(=O)[N-]C(=O)CCCC[C@@H]2SC[C@@H]3NC(=O)N[C@@H]32)[C@@H](O)[C@H]1O.[Na+]
[1]
  MIC50: 0.047 µM
[2]
  MIC50: 16 µM
[3]
  MIC50: 11 µM
[4]
  MIC50: 0.14 µM

## Nc1cccc2c1ncn2CCCCNS(=O)(=O)NC(=O)CCCC[C@@H]1SC[C@@H]2NC(=O)N[C@@H]21
[1]
  MIC50: 16 µM (≈ 8.15 µg/mL)
[4]
  MIC50: 18 µM (≈ 9.17 µg/mL)
